{"source": "paper PMC6339703", "about": "“Visualizing the Distribution of Matrix Metalloproteinases in Ischemic Brain Using In Vivo ^19F-Magnetic Resonance Spectroscopic Imaging” (Contrast Media & Molecular Imaging, 2019)", "key": {"MMP2": {"target": "T1, MMP2 (Homo sapiens, UniProt P08253)", "T1 sequence (P08253 110-660)": "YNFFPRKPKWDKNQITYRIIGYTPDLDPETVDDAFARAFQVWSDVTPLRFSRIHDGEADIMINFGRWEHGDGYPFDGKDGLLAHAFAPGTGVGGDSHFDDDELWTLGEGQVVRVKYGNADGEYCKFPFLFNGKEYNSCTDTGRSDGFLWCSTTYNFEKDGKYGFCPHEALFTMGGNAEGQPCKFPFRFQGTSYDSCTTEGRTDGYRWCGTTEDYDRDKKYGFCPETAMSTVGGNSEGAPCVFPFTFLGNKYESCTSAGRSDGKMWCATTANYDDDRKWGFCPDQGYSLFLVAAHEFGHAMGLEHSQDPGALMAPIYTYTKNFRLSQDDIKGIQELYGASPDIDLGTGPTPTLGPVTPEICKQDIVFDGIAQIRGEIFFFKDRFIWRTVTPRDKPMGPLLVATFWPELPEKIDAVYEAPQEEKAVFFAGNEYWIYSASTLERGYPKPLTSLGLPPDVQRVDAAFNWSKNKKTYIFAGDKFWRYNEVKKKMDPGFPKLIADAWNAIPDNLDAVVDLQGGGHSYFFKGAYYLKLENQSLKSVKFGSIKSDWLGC", "assay": "in vitro MMP inhibition assay (Eurofins Panlabs)", "format": "biochemical"}, "MMP9": {"target": "MMP9 (Homo sapiens, UniProt P14780)", "sequence (P14780 107-707)": "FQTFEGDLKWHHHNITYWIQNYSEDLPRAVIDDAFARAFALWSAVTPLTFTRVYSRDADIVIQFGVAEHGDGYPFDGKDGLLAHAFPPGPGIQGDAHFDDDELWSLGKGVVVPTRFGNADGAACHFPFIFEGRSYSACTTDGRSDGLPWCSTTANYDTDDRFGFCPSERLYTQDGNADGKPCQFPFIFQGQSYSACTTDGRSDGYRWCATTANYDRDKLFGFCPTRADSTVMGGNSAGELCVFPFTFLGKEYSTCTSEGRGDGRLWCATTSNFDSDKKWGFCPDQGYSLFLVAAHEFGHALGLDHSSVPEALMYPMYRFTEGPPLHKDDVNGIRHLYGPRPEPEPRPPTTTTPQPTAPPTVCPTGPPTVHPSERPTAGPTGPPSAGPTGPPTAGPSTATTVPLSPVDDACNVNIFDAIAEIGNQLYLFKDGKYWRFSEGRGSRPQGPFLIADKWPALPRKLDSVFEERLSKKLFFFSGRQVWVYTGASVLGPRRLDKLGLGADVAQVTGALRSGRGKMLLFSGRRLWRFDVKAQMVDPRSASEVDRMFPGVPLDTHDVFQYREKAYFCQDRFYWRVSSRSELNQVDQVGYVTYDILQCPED", "assay": "in vitro MMP inhibition assay (Eurofins Panlabs)", "format": "biochemical"}}}
{"smiles": "CNC(=O)C(Cc1c[nH]c2ccc(F)cc12)NC(=O)C(CC(=O)NO)CC(C)C", "note": "(mixture of isomers) [TGF-019]", "values": [{"measurement": "in vitro MMP inhibition assay (Eurofins Panlabs)", "setting": "MMP2", "result": "completely inhibit"}, {"measurement": "in vitro MMP inhibition assay (Eurofins Panlabs)", "setting": "MMP9", "result": "completely inhibit"}]}
